Molecular target: T1, KRAS G12C and cRAF interaction (Homo sapiens, UniProt P01116, C118S/C51S/C80L/G12C)
T1 construct: truncated version comprising amino acids 1-169
Assay: Inhibition of KRAS G12C and cRAF binding (AlphaScreen)
Assay type: biochemical
Conditions: KRAS G12C (Cys-light, aa 1-169) preloaded with GMPPNP, cRaf RBD (aa 50-131), 2 hours incubation
Procedure: The AlphaScreen technology was used to determine IC50s for compound inhibition of KRAS G12C (present as the Cys-light (C51S, C80L and C118S), truncated version comprising amino acids 1-169) and cRAF interaction. Compounds were diluted in 100% DMSO and each compound concentration was spotted at 200 nl/well onto low volume, white 384 well plates. The KRAS G12C contained a biotin-AviTag and the cRaf, as Ras-binding domain (amino acids 50-131, RBD), was GST-tagged. KRAS G12C was preloaded with the GTP analogue Guanosine 5′-[β,γ-imido]triphosphate (GMPPNP). The KRAS G12C was diluted in 25 mM Hepes, pH 7.4, 150 mM NaCl, 5 mM MgCl2, 0.01% TritonX-100 and 10 μM GMPPNP and added at 10 μl/well to compound-spotted plates resulting in a DMSO concentration of 2%. Plates were incubated for 2 hours. A mixture of RBD and the AlphaScreen streptavidin donor and glutathione acceptor beads diluted in 25 mM Hepes, pH 7.4, 150 mM NaCl, 5 mM MgCl2, 0.01% TritonX-100 and 2% DMSO was then added at 10 μl/well and incubated for 60-90 minutes before the samples were read for emission at 570 nm after excitation of the donor beads at 680 nm. All incubations were performed at room temperature. The final top compound concentration was 50 μM with 1:3 titrations for 10-point dose response curves. Final assay conditions were 0.5 nM KRAS G12C, 0.75 nM RBD and 5 μg/ml each of AlphaScreen donor and acceptor beads. IC50S were determined using nonlinear regression fit of [inhibitor] vs. response (4 parameters).
A counter assay was also set up to rule out inhibitors of the AlphaScreen technology itself. Compound plates were incubated for 2 hours as above with buffer only.
The AlphaScreen beads were added as above except biotin-AviTag-GST was substituted for the RBD. Samples were read and analyzed as above.

T1 sequence (P01116 1-169 isoform P01116-2 G12C/C51S/C80L/C118S): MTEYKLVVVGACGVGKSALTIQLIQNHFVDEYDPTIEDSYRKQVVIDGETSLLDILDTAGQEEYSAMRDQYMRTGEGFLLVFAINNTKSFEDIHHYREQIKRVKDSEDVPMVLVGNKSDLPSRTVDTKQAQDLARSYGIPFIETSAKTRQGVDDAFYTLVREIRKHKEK

Row | SMILES | IC50 [µM]
1 | O=C(/C=C/CN1[C@@H]2CC[C@H]1COC2)N1CCN(c2nc(OC[C@@]34CCCN3C[C@H](F)C4)nc3c(F)c(-c4ccccc4C(F)F)ncc23)CC12COC2 [Example 26, (E)-4-((1R,5S)-3-oxa-8-azabicyclo[3.2.1]octan-8-yl)-1-(8-(7-(2-(difluoromethyl)phenyl)-8-fluoro-2-(((2R,7aS)-2-fluorotetrahydro-1H-pyrrolizin-7a(5H)-yl)methoxy)pyrido[4,3-d]pyrimidin-4-yl)-2-oxa-5,8-diazaspiro[3.5]nonan-5-yl) but-2-en-1-one] | 0.1 to 0.5
2 | Cc1cc(/C=C/C(=O)N2CCN(c3nc(OC[C@@]45CCCN4C[C@H](F)C5)nc4c(F)c(-c5cccc6ccc(F)c(F)c56)ncc34)CC23COC3)nc(C)n1 [Example 32, (E)-1-(8-(7-(7,8-difluoronaphthalen-1-yl)-8-fluoro-2-(((2R,7aS)-2-fluorotetrahydro-1H-pyrrolizin-7a(5H)-yl)methoxy)pyrido[4,3-d]pyrimidin-4-yl)-2-oxa-5,8-diazaspiro[3.5]nonan-5-yl)-3-(2,6-dimethylpyrimidin-4-yl) prop-2-en-1-one] | 0.01 to 0.1
3 | C#Cc1c(F)ccc2cccc(-c3ncc4c(N5CCN(C(=O)/C=C/[C@H]6CCN6C)C6(COC6)C5)nc(OC[C@@]56CCCN5C[C@H](F)C6)nc4c3F)c12 [Example 66] | 0.01 to 0.1
4 | C=CC(=O)N1[C@@H](C)CN(c2nc(OC[C@@]34CCCN3C[C@H](F)C4)nc3c(F)c(-c4cccc5cccc(Cl)c45)ncc23)CC12COC2 [Example 74] | ≥ 0.5
5 | O=C(/C=C/CN1CC2CC(C1)O2)N1CCN(c2nc(OC[C@@]34CCCN3C[C@H](F)C4)nc3c(F)c(-c4cccc5ccc(F)c(F)c45)ncc23)CC12COC2 [Example 20, (E)-4-(6-oxa-3-azabicyclo[3.1.1]heptan-3-yl)-1-(8-(7-(7,8-difluoronaphthalen-1-yl)-8-fluoro-2-(((2R,7aS)-2-fluorotetrahydro-1H-pyrrolizin-7a(5H)-yl)methoxy)pyrido[4,3-d]pyrimidin-4-yl)-2-oxa-5,8-diazaspiro[3.5]nonan-5-yl) but-2-en-1-one] | < 0.01
6 | C=CC(=O)N1CCN(c2nc(OC[C@@]34CCCN3C[C@H](F)C4)nc3c(F)c(-c4cc(O)cc(Cl)c4C4CC4)ncc23)CC12CCOC2 (stereo partly drawn) [Example 85, 1-(9-(7-(3-chloro-2-cyclopropyl-5-hydroxyphenyl)-8-fluoro-2-(((2R,7aS)-2-fluorotetrahydro-1H-pyrrolizin-7a(5H)-yl)methoxy)pyrido[4,3-d]pyrimidin-4-yl)-2-oxa-6,9-diazaspiro[4.5]decan-6-yl) prop-2-en-1-one] | < 0.01
7 | C=CC(=O)N1CCN(c2nc(OC[C@@H]3CCCN3C)nc3c(F)c(-c4cccc5cccc(Cl)c45)ncc23)CC12COC2 [Example 1, (S)-1-(8-(7-(8-chloronaphthalen-1-yl)-8-fluoro-2-((1-methylpyrrolidin-2-yl)methoxy)pyrido[4,3-d]pyrimidin-4-yl)-2-oxa-5,8-diazaspiro[3.5]nonan-5-yl) prop-2-en-1-one] | 0.1 to 0.5
8 | C=CC(=O)N1[C@H](C)CN(c2nc(OC[C@@]34CCCN3C[C@H](F)C4)nc3c(F)c(-c4cccc5cccc(Cl)c45)ncc23)CC12COC2 [Example 72] | 0.1 to 0.5
9 | Cc1cc(/C=C(\F)C(=O)N2CCN(c3nc(OC[C@@]45CCCN4C[C@H](F)C5)nc4c(F)c(-c5cccc6ccc(F)c(F)c56)ncc34)CC23COC3)nc(C)n1 [Example 59, (Z)-1-(8-(7-(7,8-difluoronaphthalen-1-yl)-8-fluoro-2-(((2R,7aS)-2-fluorotetrahydro-1H-pyrrolizin-7a(5H)-yl)methoxy)pyrido[4,3-d]pyrimidin-4-yl)-2-oxa-5,8-diazaspiro[3.5]nonan-5-yl)-3-(2,6-dimethylpyrimidin-4-yl)-2-fluoroprop-2-en-1-one] | < 0.01
10 | Cc1nccc(/C=C(\F)C(=O)N2CCN(c3nc(OC[C@@]45CCCN4C[C@H](F)C5)nc4c(F)c(-c5cccc6cccc(Cl)c56)ncc34)CC23COC3)n1 [Example 61] | ≥ 0.5
